Values joined by “and” are separate entries in the source; they are usually repeats but may differ in a detail not shown here. Equal values may be shown once. Read-outs that look alike come from different tables or passages of the source.
Columns and labels:
[1] = Method: The solubility of Cyclophosphamide monohydrate in various solvents was checked. The quantity of solvent consumed for dissolving 100 mg of Cyclophosphamide monohydrate is given below: […]
[2] = remark: listed apart in the source
Text: The change of description of Cyclophosphamide monohydrate at various temperatures was studied by exposing the drug to different temperatures under constant vacuum and details are given in Tables 6 & 7: […]

[3] = Moisture content (KF titration) of drug substance and lyophilizate; format: physicochemical; settings: Sample numbers I, II, III, listed as Drug substance (Monohydrate Form)
Text: (§1) The moisture content and water activity of the drug substance as well as the lyophilizate was checked to ensure the retention of the crystalline monohydrate form of the drug substance in the Lyophilizate. Water activity instruments measure the amount of free (sometimes referred to as unbound or active) water present in the sample and KF titration measures the total water in a sample.

[4] = Water activity of drug substance and lyophilizate; format: physicochemical; settings: Sample numbers I, II, III, listed as Drug substance (Monohydrate Form)
Text: as §1

[5] = Vacuum 1000 mtorr, +25° C. (5 hrs)
[6] = Vacuum 1000 mtorr, −2° C. (12 hrs)
[7] = Vacuum 1000 mtorr, −15° C. (19 hrs)
[8] = Vacuum 1000 mtorr, −25° C. (12 hrs)
[9] = Vacuum 1000 mtorr, −40° C. (5 hrs)

## Cl.[O-][P+]1(N(CCCl)CCCl)NCCCO1 (stereo not drawn) [Cyclophosphamide monohydrate, 2-[bis(2-chloroethyl)amino]tetrahydro-2H-1,3,2-oxazaphosphorine 2-oxide monohydrate]
[1]; Acetone
  quantity of solvent consumed for dissolving 100 mg: 0.4 mL
[1]; Acetonitrile
  quantity of solvent consumed for dissolving 100 mg: 0.5 mL
[1]; Dimethyacetamide
  quantity of solvent consumed for dissolving 100 mg: 2.0 mL
[1]; Ethanol
  quantity of solvent consumed for dissolving 100 mg: 0.5 mL
[1]; Tertiary butyl alcohol
  quantity of solvent consumed for dissolving 100 mg: 0.5 mL
[1]; Water
  quantity of solvent consumed for dissolving 100 mg: 2.45 mL
[2]; Initial
  % Moisture content: 6.87%
  Observation for Description: Powder
[2]; [5]
  % Moisture content: 2.94%
  Observation for Description: Liquid
[2]; [6]
  % Moisture content: 4.52%
  Observation for Description: Sticky
[2]; [7]
  % Moisture content: 6.29%
  Observation for Description: Powder
[2]; [8]
  % Moisture content: 6.27%
  Observation for Description: Powder
[2]; [9]
  % Moisture content: 6.23%
  Observation for Description: Powder
[2]; −10 °C, 350 mtorr and 6 hours
  Description: Powder
  Moisture Content (%): 7.56%
[2]; −15 °C, 350 mtorr and 12 hours
  Description: Powder
  Moisture Content (%): 6.99%
[2]; −25 °C, 150 mtorr and 6 hours
  Description: Powder
  Moisture Content (%): 6.87%
[2]; −25 °C, 150 mtorr and 15 hours
  Description: Sticky Mass
  Moisture Content (%): 4.55%
[2]; −25 °C, 280 mtorr and 12 hours
  Description: Powder
  Moisture Content (%): 6.51%
[3]
  Moisture Content (%): 6.64% and 6.75% and 6.72%
[4]
  Water Activity (aw): 0.374 and 0.372 and 0.373

Reference: patent publication US20150290226A1, “NOVEL LYOPHILIZED COMPOSITIONS OF CYCLOPHOSPHAMIDE” (LEIUTIS PHARMACEUTICALS PVT. LTD., priority 2012, published 2015)
